Source: patent US20170319572A1, “COMBINATION DRUG TREATMENT FOR HEPATITIS C INFECTION” (JANSSEN PHARMACEUTICALS, INC., priority 2015, published 2017)

Tests used:
[1] = Phase 2a open-label combination study, pharmacokinetics and safety; format: in vivo, human; conditions: for change of exposure on reducing ODV dosing from QD to QOD: 50 mg
Experimental: A randomized, Phase 2a, open-label study was carried out to evaluate the safety, pharmacokinetics and efficacy of the combination of Compound (III), Odalasvir and Simeprevir in Genotype 1 treatment-naïve subjects with chronic hepatitis C. Other treatment-naïve subjects included Genotype 2, 3, 4, 5 and 6. The aim of the study was to determine the efficacy, pharmacokinetics (PK), and safety of Compound (III)+Odalasvir±SMV in HCV-infected subjects. […] Efficacy, PK and safety evaluations were conducted during and through 24 weeks post dosing. Up to 15 cohorts were enrolled; data was generated from cohorts that have completed dosing.

[2] = PK analysis of fixed dose combinations vs single agents, single dose in healthy volunteers; format: in vivo, human; conditions: Arm 2 (FDC02) vs reference (Arm 1); 90% CI in the row below
Experimental: SMV (100 mg), ODV (50 mg), and Compound (III) (800 mg) were administered as three different formulations or together as single doses in vivo to healthy volunteers. The arms of the study included: • Arm 1 (Reference Arm): Single oral doses of single agents, one SMV 100-mg capsule, one ODV 50-mg tablet as granule layered solid dispersion with copovidone and poloxamers, and two Compound (III) 400-mg tablets, administered together. • Arm 2: Single oral dose of fixed dose combination (FDC02): SMV 100 mg+ODV 50 mg as a spray dried solid dispersion with HPMC-AS L in a ratio ODV/HPMC-AS L 1/1 w/w+Compound (III) 800 mg • Arm 3: Single oral dose of fixed dose combination (FDC04): SMV 100 mg+ODV 50 mg as a spray dried solid dispersion with HPMC-AS L in a ratio ODV/HPMC-AS L 1/3 w/w+Compound (III) 800 mg • Arm 4: Single oral dose of fixed dose combination (FDC01): SMV 100 mg+ODV 50 mg as a spray dried solid dispersion with copovidone and poloxamers+Compound (III) 800 mg
PK parameters, including Cmax, tmax, AUClast, and AUC∞ were measured for Compound (III), ODV, SMV, and metabolites Compound A-I and Compound A-3 for each Arm of the study. Arms that included fixed dose combinations (FDC) (Arm 2, Arm 3, and Arm 4) were then compared to a single oral dose (Arm 1, the reference Arm). […]

[3] = molecular target: MRP2 (Homo sapiens, UniProt Q92887); conditions: MRP2/3; cited from earlier work
[4] = molecular target: BSEP (Homo sapiens, UniProt O95342); conditions: cited from earlier work
[5] = molecular target: T1, BCRP (Homo sapiens, UniProt Q9UNQ0); conditions: cited from earlier work
T1 sequence (Q9UNQ0 1-655): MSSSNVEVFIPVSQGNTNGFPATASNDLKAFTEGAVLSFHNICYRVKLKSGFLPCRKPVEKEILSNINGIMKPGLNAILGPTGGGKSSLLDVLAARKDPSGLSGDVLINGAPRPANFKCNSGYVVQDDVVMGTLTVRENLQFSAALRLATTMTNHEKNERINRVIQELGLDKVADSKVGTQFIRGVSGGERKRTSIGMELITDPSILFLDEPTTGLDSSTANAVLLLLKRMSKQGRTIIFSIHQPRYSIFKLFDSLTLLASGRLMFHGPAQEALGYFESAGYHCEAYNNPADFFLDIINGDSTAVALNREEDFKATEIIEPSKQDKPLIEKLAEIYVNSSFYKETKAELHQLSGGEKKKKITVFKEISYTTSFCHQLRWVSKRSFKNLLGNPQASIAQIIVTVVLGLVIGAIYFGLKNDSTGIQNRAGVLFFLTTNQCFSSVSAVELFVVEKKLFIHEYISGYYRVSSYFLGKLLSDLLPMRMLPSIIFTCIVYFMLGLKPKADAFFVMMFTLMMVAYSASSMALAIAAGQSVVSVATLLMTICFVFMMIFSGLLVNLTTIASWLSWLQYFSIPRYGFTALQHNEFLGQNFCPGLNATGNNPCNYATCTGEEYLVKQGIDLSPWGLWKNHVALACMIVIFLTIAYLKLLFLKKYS

[6] = molecular target: MRP3 (Homo sapiens, UniProt O15438); conditions: MRP2/3; cited from earlier work
[7] = molecular target: Pgp (Homo sapiens, UniProt P08183); conditions: cited from earlier work
Pgp, sequence (P08183 whole entry): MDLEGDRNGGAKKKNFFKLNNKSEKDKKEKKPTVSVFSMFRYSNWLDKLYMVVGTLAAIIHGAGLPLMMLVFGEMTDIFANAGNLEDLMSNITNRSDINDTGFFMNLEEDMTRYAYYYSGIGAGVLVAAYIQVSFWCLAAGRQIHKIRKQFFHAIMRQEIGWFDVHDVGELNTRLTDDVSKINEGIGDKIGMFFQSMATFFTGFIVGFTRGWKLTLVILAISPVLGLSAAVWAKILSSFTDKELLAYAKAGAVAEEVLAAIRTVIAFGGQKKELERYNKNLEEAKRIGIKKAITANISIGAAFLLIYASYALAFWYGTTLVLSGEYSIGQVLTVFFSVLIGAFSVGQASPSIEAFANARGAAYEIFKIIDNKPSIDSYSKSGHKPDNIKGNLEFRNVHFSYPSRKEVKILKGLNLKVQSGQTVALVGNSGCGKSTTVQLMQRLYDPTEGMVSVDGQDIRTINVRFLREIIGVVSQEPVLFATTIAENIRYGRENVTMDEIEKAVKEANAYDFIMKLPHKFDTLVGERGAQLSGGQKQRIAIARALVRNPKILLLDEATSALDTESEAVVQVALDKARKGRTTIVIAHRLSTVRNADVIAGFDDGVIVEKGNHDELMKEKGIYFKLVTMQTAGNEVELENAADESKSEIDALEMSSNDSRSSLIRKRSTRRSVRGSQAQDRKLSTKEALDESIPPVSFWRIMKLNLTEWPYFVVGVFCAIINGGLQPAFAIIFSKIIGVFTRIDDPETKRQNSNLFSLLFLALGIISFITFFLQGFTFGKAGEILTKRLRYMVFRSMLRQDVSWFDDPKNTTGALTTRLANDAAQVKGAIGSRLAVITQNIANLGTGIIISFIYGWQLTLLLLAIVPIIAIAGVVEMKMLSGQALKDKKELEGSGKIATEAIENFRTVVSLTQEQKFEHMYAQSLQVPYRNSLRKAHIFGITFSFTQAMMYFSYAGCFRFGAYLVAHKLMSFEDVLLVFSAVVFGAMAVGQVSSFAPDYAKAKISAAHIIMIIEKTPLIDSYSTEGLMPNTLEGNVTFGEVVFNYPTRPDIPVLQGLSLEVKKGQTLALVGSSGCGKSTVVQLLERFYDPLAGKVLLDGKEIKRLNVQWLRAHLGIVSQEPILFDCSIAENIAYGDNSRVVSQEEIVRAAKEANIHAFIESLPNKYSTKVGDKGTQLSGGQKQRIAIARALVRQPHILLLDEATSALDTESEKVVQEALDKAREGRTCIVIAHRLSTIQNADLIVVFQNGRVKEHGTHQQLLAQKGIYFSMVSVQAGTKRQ

MRP2, sequence (Q92887 whole entry): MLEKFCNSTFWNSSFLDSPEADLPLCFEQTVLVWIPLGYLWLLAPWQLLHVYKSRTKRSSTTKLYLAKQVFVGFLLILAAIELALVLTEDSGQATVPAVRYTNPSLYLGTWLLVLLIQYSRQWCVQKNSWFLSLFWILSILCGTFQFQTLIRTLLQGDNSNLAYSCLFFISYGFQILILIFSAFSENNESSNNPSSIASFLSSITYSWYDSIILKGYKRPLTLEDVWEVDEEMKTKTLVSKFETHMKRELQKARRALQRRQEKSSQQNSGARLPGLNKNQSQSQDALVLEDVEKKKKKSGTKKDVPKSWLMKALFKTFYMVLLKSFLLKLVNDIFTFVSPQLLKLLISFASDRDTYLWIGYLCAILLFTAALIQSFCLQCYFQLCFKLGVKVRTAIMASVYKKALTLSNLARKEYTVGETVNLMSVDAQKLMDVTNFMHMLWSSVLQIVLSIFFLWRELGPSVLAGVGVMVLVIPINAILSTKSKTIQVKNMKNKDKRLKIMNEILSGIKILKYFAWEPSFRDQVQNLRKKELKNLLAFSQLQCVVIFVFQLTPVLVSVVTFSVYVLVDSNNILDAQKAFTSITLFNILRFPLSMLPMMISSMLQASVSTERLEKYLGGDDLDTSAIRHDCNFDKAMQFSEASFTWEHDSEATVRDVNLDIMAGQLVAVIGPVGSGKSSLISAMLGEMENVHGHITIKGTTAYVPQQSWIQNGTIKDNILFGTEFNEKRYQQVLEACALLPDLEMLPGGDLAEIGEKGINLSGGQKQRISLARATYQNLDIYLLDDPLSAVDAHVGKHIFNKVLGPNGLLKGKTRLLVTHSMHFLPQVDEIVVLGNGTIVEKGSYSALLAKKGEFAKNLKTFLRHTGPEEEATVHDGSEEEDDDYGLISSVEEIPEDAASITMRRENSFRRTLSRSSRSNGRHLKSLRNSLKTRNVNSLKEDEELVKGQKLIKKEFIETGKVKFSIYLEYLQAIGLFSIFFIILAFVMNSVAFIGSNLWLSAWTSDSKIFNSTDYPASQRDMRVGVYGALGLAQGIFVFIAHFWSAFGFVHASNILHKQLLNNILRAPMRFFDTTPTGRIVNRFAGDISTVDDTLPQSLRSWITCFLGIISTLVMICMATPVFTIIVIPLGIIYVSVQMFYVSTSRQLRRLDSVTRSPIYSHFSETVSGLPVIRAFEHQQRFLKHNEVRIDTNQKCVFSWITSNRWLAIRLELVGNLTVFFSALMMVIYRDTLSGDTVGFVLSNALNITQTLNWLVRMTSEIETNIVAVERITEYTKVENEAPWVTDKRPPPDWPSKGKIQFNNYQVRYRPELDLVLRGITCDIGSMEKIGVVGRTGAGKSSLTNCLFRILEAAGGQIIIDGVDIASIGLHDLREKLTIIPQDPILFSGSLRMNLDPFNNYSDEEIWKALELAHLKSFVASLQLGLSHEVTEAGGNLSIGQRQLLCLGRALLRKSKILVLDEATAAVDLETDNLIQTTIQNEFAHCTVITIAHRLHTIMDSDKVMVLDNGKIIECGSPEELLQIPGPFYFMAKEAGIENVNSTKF
MRP3, sequence (O15438 whole entry): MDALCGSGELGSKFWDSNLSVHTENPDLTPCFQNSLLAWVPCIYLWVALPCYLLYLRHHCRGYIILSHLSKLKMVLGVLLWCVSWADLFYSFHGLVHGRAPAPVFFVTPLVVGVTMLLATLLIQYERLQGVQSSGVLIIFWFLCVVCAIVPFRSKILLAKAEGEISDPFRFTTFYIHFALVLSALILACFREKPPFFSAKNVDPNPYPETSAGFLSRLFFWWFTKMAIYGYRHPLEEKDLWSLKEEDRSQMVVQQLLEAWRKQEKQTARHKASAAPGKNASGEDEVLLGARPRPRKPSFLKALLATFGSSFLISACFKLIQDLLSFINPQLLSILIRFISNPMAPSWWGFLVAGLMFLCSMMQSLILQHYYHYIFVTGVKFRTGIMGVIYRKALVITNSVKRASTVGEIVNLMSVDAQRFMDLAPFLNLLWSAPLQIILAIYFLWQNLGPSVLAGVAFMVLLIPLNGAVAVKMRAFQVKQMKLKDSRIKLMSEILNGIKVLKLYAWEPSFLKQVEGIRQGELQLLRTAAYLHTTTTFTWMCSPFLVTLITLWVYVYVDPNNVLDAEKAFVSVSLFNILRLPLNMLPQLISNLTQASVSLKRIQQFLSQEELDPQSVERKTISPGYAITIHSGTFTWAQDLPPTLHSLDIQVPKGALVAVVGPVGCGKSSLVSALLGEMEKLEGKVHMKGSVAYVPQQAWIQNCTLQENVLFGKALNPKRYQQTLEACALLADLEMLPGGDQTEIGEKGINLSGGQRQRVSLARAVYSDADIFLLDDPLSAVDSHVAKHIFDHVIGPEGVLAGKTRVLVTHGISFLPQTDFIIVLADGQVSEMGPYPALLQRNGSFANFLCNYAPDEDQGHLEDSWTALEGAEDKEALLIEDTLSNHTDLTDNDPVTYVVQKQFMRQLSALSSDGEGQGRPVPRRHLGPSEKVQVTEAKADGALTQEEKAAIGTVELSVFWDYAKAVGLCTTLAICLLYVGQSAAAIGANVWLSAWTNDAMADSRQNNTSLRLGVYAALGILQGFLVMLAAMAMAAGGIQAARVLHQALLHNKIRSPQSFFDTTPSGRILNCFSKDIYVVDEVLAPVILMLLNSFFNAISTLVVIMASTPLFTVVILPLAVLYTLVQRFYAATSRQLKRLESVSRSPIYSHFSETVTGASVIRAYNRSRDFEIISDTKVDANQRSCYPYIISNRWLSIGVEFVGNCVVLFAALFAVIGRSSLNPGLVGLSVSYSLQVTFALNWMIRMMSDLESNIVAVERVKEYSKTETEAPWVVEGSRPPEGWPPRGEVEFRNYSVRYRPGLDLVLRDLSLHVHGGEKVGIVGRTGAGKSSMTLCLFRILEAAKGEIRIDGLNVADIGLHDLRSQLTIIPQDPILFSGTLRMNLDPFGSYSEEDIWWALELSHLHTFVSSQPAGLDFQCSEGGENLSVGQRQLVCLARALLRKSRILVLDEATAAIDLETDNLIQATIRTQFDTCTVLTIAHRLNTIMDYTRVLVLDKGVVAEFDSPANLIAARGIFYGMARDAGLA

SMILES | change of exposure on reducing ODV dosing from QD to QOD [1] | change of exposure on reducing ODV dosing from QD to QOD ([1]; listed as Odalasvir) | observed exposure in Cohort 1 / group (i) ([1]; Compound (III) 400 mg, ODV 50 mg QD, SMV 100 mg QD) | Least Square Means Ratio, Cmax [2] [%] | inhibition of MRP2 [3] | inhibition of BSEP [4] | inhibition of BCRP [5] | inhibition of MRP3 [6] | in vitro inhibition of Pgp [7]
COC(=O)N[C@H](C(=O)N1[C@H](c2nc3cc(-c4cc5ccc4CCc4ccc(c(-c6ccc7[nH]c([C@@H]8C[C@@H]9CCCC[C@@H]9N8C(=O)[C@@H](NC(=O)OC)C(C)C)nc7c6)c4)CC5)ccc3[nH]2)C[C@@H]2CCCC[C@@H]21)C(C)C [ODV, methyl [(2S)-1-[(2S,3aS,7aS)-2-[6-[11-[2-[(2S,3aS,7aS)-1-[(2S)-2-[(methoxycarbonyl)amino]-3-methylbutanoyl]octahydro-1H-indol-2-yl]-1H-benzimidazol-6-yl]tricyclo[8.2.2.2^4,7]hexadeca-1(12),4,6,10,13,15-hexaen-5-yl]-1H-benzimidazol-2-yl]octahydro-1H-indol-1-yl]-3-methyl-1-oxobutan-2-yl]carbamate] | decreased ODV exposure proportionally | decreased Odalasvir exposure proportionally | higher than anticipated | 81.00 | no inhibition | no inhibition | no inhibition | no inhibition | –
CC(C)OC(=O)[C@H](C)N[P@](=O)(OC[C@@]1(F)O[C@@H](n2ccc(=O)[nH]c2=O)[C@](C)(O)[C@@H]1O)Oc1ccccc1 [Compound (III), isopropyl ((S)-(((2S,3S,4R,5R)-5-(2,4-dioxo-3,4-dihydropyrimidin-1 (2H)-yl)-2-fluoro-3,4-dihydroxy-4-methyltetrahydrofuran-2-yl)methoxy)(phenoxy)phosphoryl)-L-alaninate] | – | – | – | – | – | – | no in vitro inhibition | – | no in vitro inhibition
